Measured values from patent publication US12497397B2, “Pyrrole compounds useful as antifungals” (WIGEN BIOMEDICINE TECHNOLOGY (SHANGHAI) CO., LTD., priority 2019, dated 2025).
Converted amounts (≈) assume the structure as drawn.

Legend:
Test in all cases: In vitro minimum inhibitory concentration (MIC) test
Assay type in all cases: cell-based
Conditions in all cases: RPMI 1640, 35° C., 24-48 h, 485 nm, lowest concentration inhibiting growth more than 80%
Aspergillus flavus = system: Aspergillus flavus
Method: (§1) Example 20: In Vtro Minimum Inhibitory Concentration (MIC) Test Strains used in the experiment are inoculated on Sabouraud glucose agar culture medium and cultured at 35° C. for 5 d; then 1 mL of 0.2% Tween diluted with 0.85% sterile normal saline is added into Sabouraud dextrose agar culture medium, and plate is shaken, before solution collected from plate surface is transferred into sterile tube, and fungus containing supernatant is transferred into sterile tube in full suspension so as to prepare strain diluent with concentration from 0.4*10^6 to 5*10^6 CFU/mL. Strain diluent prepared herein is diluted into RPMI 1640 culture medium in a ratio of 1:100. Such biological suspension is added into hole on the plate which contains drug diluent; all plates are incubated at 35° C. for 24-48 h, and light in wavelength of 485 nm is monitored for each hole to evaluate strain growth. MIC of compound is defined as follows: Compared with negative control free of drug, the lowest drug concentration able to inhibit growth for more than 80% of strains. A indicates MIC value>0.1 μg/mL, B indicates 0.1 μg/mL≥MIC value>0.01 μg/mL, and C indicates MIC value<0.01 μg/mL.

Aspergillus fumigatus = system: Aspergillus fumigatus
Method: as §1

Aspergillus niger = system: Aspergillus niger
Method: as §1

Aspergillus terreus = system: Aspergillus terreus
Method: as §1

| MIC (Aspergillus flavus) [µg/mL] | MIC (Aspergillus fumigatus) [µg/mL] | MIC (Aspergillus niger) [µg/mL] | MIC (Aspergillus terreus) [µg/mL] | SMILES |
| --- | --- | --- | --- | --- |
| < 0.01 | < 0.01 | < 0.01 | < 0.01 | Cc1cc(-c2ccccc2)c(C(=O)C(=O)Nc2ccc3c(c2)OC[C@H]2CN(c4ncc(F)cn4)CCN32)n1C [Example 1-B] |
| 0.01 to 0.1 (≈ 0.0182 to 0.182 µM) | < 0.01 | 0.01 to 0.1 (≈ 0.0182 to 0.182 µM) | < 0.01 | Cc1cc(C)nc(N2CCN3c4ccc(NC(=O)C(=O)c5c(-c6ccccc6)cc(C)n5C)cc4N(C)CC3C2)c1 (stereo not drawn) [Example 13] |
| 0.01 to 0.1 (≈ 0.0185 to 0.185 µM) | < 0.01 | 0.01 to 0.1 (≈ 0.0185 to 0.185 µM) | < 0.01 | Cc1cc(-c2ccccc2)c(C(=O)C(=O)Nc2ccc3c(c2)N(C)CC2CN(c4ncc(F)cn4)CCN32)n1C (stereo not drawn) [Example 12] |
| > 0.1 | > 0.1 | > 0.1 | > 0.1 | CCC(C)n1ncn(-c2ccc(N3CCN(c4ccc(OCC5COC(Cn6cncn6)(c6ccc(Cl)cc6Cl)O5)cc4)CC3)cc2)c1=O (stereo not drawn) [Itraconazole, reference compound] |
| < 0.01 | 0.01 to 0.1 (≈ 0.0175 to 0.175 µM) | < 0.01 | < 0.01 | COCCn1c(C)cc(-c2ccccc2)c1C(=O)C(=O)Nc1ccc2c(c1)OCC1CN(c3ncc(F)cn3)CCN21 (stereo not drawn) [Example 16] |
| < 0.01 | < 0.01 | < 0.01 | < 0.01 | Cc1cc(-c2ccccc2)c(C(=O)C(=O)Nc2ccc3c(c2)N(C)C[C@@H]2CN(c4ncc(F)cn4)CCN32)n1C [Example 12-A] |
| < 0.01 | < 0.01 | 0.01 to 0.1 (≈ 0.0185 to 0.185 µM) | < 0.01 | CCn1c(C)cc(-c2ccccc2)c1C(=O)C(=O)Nc1ccc2c(c1)OCC1CN(c3ncc(F)cn3)CCN21 (stereo not drawn) [Example 14] |
| < 0.01 | < 0.01 | < 0.01 | < 0.01 | Cc1cc(-c2ccccc2)c(C(=O)C(=O)Nc2ccc3c(c2)OCC2CN(c4ncc(F)cn4)CCN32)n1C (stereo not drawn) [Example 1] |
| < 0.01 | < 0.01 | < 0.01 | < 0.01 | Cc1cc(C)nc(N2CCN3c4ccc(NC(=O)C(=O)c5c(-c6ccccc6)cc(C)n5C)cc4OCC3C2)c1 (stereo not drawn) [Example 2] |
| < 0.01 | < 0.01 | < 0.01 | < 0.01 | Cc1cc(C)nc(N2CCN3c4ccc(NC(=O)C(=O)c5c(-c6ccccc6)cc(C)n5C)cc4OC[C@H]3C2)c1 [Example 2-B] |
| 0.01 to 0.1 (≈ 0.0182 to 0.182 µM) | < 0.01 | 0.01 to 0.1 (≈ 0.0182 to 0.182 µM) | < 0.01 | Cc1cc(C)nc(N2CCN3c4ccc(NC(=O)C(=O)c5c(-c6ccccc6)cc(C)n5C)cc4N(C)C[C@@H]3C2)c1 [Example 13-A] |
| < 0.01 | < 0.01 | < 0.01 | < 0.01 | Cc1cc(-c2ccccc2)c(C(=O)C(=O)Nc2ccc3c(c2)N(C)C[C@H]2CN(c4ncc(F)cn4)CCN32)n1C [Example 12-B] |
| < 0.01 | < 0.01 | < 0.01 | < 0.01 | Cc1cc(-c2ccccc2)c(C(=O)C(=O)Nc2ccc3c(c2)OC[C@@H]2CN(c4ncc(F)cn4)CCN32)n1C [Example 1-A] |
| 0.01 to 0.1 (≈ 0.0182 to 0.182 µM) | < 0.01 | 0.01 to 0.1 (≈ 0.0182 to 0.182 µM) | < 0.01 | Cc1cc(C)nc(N2CCN3c4ccc(NC(=O)C(=O)c5c(-c6ccccc6)cc(C)n5C)cc4N(C)C[C@H]3C2)c1 [Example 13-B] |
| 0.01 to 0.1 (≈ 0.0185 to 0.185 µM) | 0.01 to 0.1 (≈ 0.0185 to 0.185 µM) | 0.01 to 0.1 (≈ 0.0185 to 0.185 µM) | 0.01 to 0.1 (≈ 0.0185 to 0.185 µM) | Cc1cc2c(cc1NC(=O)C(=O)c1c(-c3ccccc3)cc(C)n1C)OCC1CN(c3ncc(F)cn3)CCN21 (stereo not drawn) [Example 10] |
| < 0.01 | < 0.01 | < 0.01 | < 0.01 | Cc1cc(C)nc(N2CCN3c4ccc(NC(=O)C(=O)c5c(-c6ccccc6)cc(C)n5C)cc4OC[C@@H]3C2)c1 [Example 2-A] |
| < 0.01 | < 0.01 | < 0.01 | < 0.01 | Cc1cc(-c2ccccc2)c(C(=O)C(=O)Nc2cc3c(cc2F)N2CCN(c4ncc(F)cn4)CC2CO3)n1C (stereo not drawn) [Example 9] |
| 0.01 to 0.1 (≈ 0.02 to 0.2 µM) | < 0.01 | 0.01 to 0.1 (≈ 0.02 to 0.2 µM) | < 0.01 | Cc1cc(-c2ccccc2)c(C(=O)C(=O)Nc2ccc3c(c2)OCC2CN(CC(C)(C)C)CCN32)n1C (stereo not drawn) [Example 8] |
